Data taken from the supplement of paper PMC10307832.

Experiments:
Test in all cases: relative viability (nuclei count vs DMSO), 5 days (fraction); higher = more cells survive
[1] = compound: CC1=CC=C(C=C1)C(=O)CN2C3=C(CCCC3)SC2=N [Pifithrin_alpha] + NC(=O)Nc1cc(-c2cccc(F)c2)sc1C(=O)N[C@H]1CCCNC1 [AZD7762] (partner 0.2 µM)
In short: (§1)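 Values are medians from duplicate plates. Each reflects relative viability, defined as the nuclei count of treated wells over that of vehicle wells. Lung cancer cell lines in 1536-well plates were pin-tool dosed one day after seeding with one drug alone or with a fixed anchor-drug dose plus five library-drug doses (not always all listed) in √10 steps, then fixed, stained and imaged at 4× after 5 days.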

[2] = compound: CC1=CC=C(C=C1)C(=O)CN2C3=C(CCCC3)SC2=N [Pifithrin_alpha] + O=C(CCCCCCC(=O)Nc1ccccc1)NO [Vorinostat] (partner 1 µM)
In short: as §1

Axitinib + Bortezomib = compound: CNC(=O)c1ccccc1Sc1ccc2c(/C=C/c3ccccn3)n[nH]c2c1 [Axitinib] + CC(C)C[C@H](NC(=O)[C@H](Cc1ccccc1)NC(=O)c1cnccn1)B(O)O [Bortezomib] (partner 0.002 µM)
In short: as §1

Axitinib + Alpelisib = compound: CNC(=O)c1ccccc1Sc1ccc2c(/C=C/c3ccccn3)n[nH]c2c1 [Axitinib] + Cc1nc(NC(=O)N2CCC[C@H]2C(N)=O)sc1-c1ccnc(C(C)(C)C(F)(F)F)c1 [Alpelisib] (partner 2 µM)
In short: as §1

Row | Cell Line | relative viability ([1]; first compound 1 µM) | relative viability ([1]; first compound 3.162 µM) | relative viability ([1]; first compound 10 µM) | relative viability ([1]; first compound 31.62 µM) | relative viability ([1]; first compound 100 µM) | relative viability ([2]; first compound 1 µM) | relative viability ([2]; first compound 3.162 µM) | relative viability ([2]; first compound 10 µM) | relative viability ([2]; first compound 31.62 µM) | relative viability ([2]; first compound 100 µM) | relative viability (Axitinib + Bortezomib; first compound 0.005 µM) | relative viability (Axitinib + Bortezomib; first compound 0.01581 µM) | relative viability (Axitinib + Bortezomib; first compound 0.05 µM) | relative viability (Axitinib + Bortezomib; first compound 0.1581 µM) | relative viability (Axitinib + Bortezomib; first compound 0.5 µM) | relative viability (Axitinib + Alpelisib; first compound 0.005 µM) | relative viability (Axitinib + Alpelisib; first compound 0.01581 µM) | relative viability (Axitinib + Alpelisib; first compound 0.05 µM) | relative viability (Axitinib + Alpelisib; first compound 0.1581 µM) | relative viability (Axitinib + Alpelisib; first compound 0.5 µM)
1 | NCI-H1993 | 0.528 | 0.665 | 0.69 | 0.538 | 0.569 | 0.771 | 0.607 | 0.754 | 0.627 | 0.793 | 1.21 | 1.3 | 1.14 | 1.18 | 0.913 | 0.664 | 0.643 | 0.655 | 0.784 | 0.693
2 | NCI-H2085 | 1 | 0.973 | 0.881 | 0.665 | 0.762 | 0.648 | 0.737 | 0.71 | 0.616 | 0.623 | 1.15 | 0.966 | 1.06 | 1.04 | 1.05 | 1.05 | 0.85 | 0.979 | 0.866 | 0.947
3 | NCI-H2087 | 1.4 | 1.32 | 1.28 | 1.03 | 1.26 | 0.777 | 0.877 | 0.968 | 0.672 | 0.618 | 0.944 | 0.772 | 0.868 | 0.615 | 1.13 | 1.18 | 1.04 | 0.993 | 1.07 | 1.22
4 | NCI-H2126 | 0.79 | 1.05 | 0.949 | 0.799 | 0.915 | 0.433 | 0.719 | 0.738 | 0.716 | 0.763 | 1.15 | 1.05 | 1.07 | 1.04 | 1.11 | 0.724 | 0.795 | 0.745 | 0.707 | 0.697
5 | NCI-H2347 | 0.84 | 0.733 | 0.738 | 0.756 | 0.86 | 0.541 | 0.533 | 0.685 | 0.459 | 0.536 | 1.26 | 0.752 | 1.36 | 0.798 | 0.692 | 1.12 | 1.17 | 1.05 | 1.01 | 1.01
6 | NCI-H2405 | – | 0.654 | 0.651 | 0.579 | 0.615 | – | 0.931 | 0.743 | 0.734 | 0.785 | 1.03 | 0.982 | 1.03 | 0.946 | 0.958 | 0.854 | 0.847 | 0.854 | 0.877 | 0.849
7 | NCI-H3122 | 1.07 | 1.1 | 0.962 | 0.739 | 1.08 | 0.878 | 0.978 | 1.03 | 0.828 | 0.898 | 0.904 | 1.03 | 1.04 | 1.05 | 1.07 | 0.753 | 0.719 | 0.843 | 0.711 | 0.792
8 | PC-3 [JPC-3] | – | 0.678 | – | 0.464 | 0.446 | – | 0.61 | – | 0.609 | 0.639 | 0.98 | – | 0.807 | 0.833 | 0.964 | 1.09 | – | 1 | 1.04 | 1.12
